In US7892350B2, “Sacrificial agents for fly ash concrete” (Boral Material Technologies Inc., priority 2003, dated 2011):
Like-named read-outs stand apart in the source and are kept apart here.

Legend:
[1] = Paste air entrainment, Maximum air protocol; details: for Average of air entrained at 66 min: over the fly ash:PCA pastes of Table 9
Experimental: Preparation of pastes: Pastes were prepared by pouring 400 g of cementitious powder in the 350-400 g of solution (water and additives) in a vessel (8.4 cm dia,×14.5 cm height) while gently stirring with a spatula; the exact quantity of water depends on the selected W/B ratio (see below); rapid hand mixing was continued for 1 minute, followed by intense stirring at 25° C. during 2 min using a hand-held mixer (BRAUN model MR400). The level of air entrained is dependent on the mode of utilisation of the mixer, namely the height of the mixer from the bottom of the vessel and the length of the mixing stroke; the following protocols were adopted.
Fluidity measurements: For all air entrainment measurements, the initial fluidity of the paste (without additives) was controlled using the ‘mini-slump’ procedure widely used for paste and grouts. In this protocol, a portion of the paste was transferred into the min-slump cone (a 2¼″ high, 1½″ bottom diameter, ¾″ top diameter cone); excess paste was skimmed-off with a straight; the cone was then raised and the spread diameter of the paste was recorded (average of two measurements). The fluidity is measured at 10 minutes after mixing. The paste is returned to the batch and reserved for subsequent AE measurements. The fluidity of the paste (without SA and AEA) is adjusted by changing the amount of water (water/cementitious ratio) which yields a spread diameter of 115±5 mm. The latter is monitored regularly.
Air entrainment measurements: For air entrainment measurements, a portion of the paste was transferred to overfill a Plexiglas cylinder (3¾ inches height, 2 inches interior diameter), which was then levelled flush to the top of the cylinder with a straight edge. The mass of the filled cylinder, minus the weight of the empty cylinder, is then recorded and used to calculate the amount of air according to the following formula: […]
This procedure was carried out at three times at 30 min. intervals (6, 36 and 66 min); the paste was let to stand at rest between measurements, and was stirred gently by hand for one minute prior to the subsequent air entrainment measurements.
Other combinations of air entrainment agents and sacrificial agents were prepared as stock solutions following the procedure outlined above, adjusting the weights of the various components to achieve the desired component ratios.

[2] = Second sacrificial agent testing protocol: paste air measurements with DDBS (0.0125 wt %) and rating; on Overall performance rating (second protocol rating): key: 0: Fail; 1: Poor; 2: Good; 3: Preferred; 4: Most preferred; on SA Rating (0-4): key: 0: Fail; 1: Poor; 2: Good; 3: Preferred; 4: Most preferred
Summary of the method: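 Air entrainment was measured in cement pastes of fixed composition and fluidity. The candidate agent was tested alone at 0.1 wt % in a cement-only paste. It was also tested at 0.05 and 0.1 wt % in a fly ash (B1)-cement paste with DDBS, where air recovery was calculated against the same paste without agent.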

[3] = 50:50 fly ash B1 (LOI 4.36%):PCA paste, Air 30 (0.0125 wt %)/ND/X=1/4/4, X = the labelled SA
[4] = 50:50 fly ash C1 (LOI 1.62%):PCA paste, Air 30 (0.0125 wt %)/ND/X=1/4/4, X = the labelled SA
[5] = 50:50 fly ash D (LOI […]):PCA paste, Air 30 (0.0125 wt %)/ND/X=1/4/4, X = the labelled SA
[6] = 50:50 fly ash M1 (LOI […]):PCA paste, Air 30 (0.0125 wt %)/ND/X=1/4/4, X = the labelled SA
[7] = 50:50 fly ash M2 (LOI 5.34%):PCA paste, Air 30 (0.0125 wt %)/ND/X=1/4/4, X = the labelled SA
[8] = 50:50 fly ash M3 (LOI 11.33%):PCA paste, Air 30 (0.0125 wt %)/ND/X=1/4/4, X = the labelled SA
[9] = 50:50 fly ash R (LOI […]):PCA paste, Air 30 (0.0125 wt %)/ND/X=1/4/4, X = the labelled SA
[10] = PCA paste, no fly ash, Air 30 (0.0125 wt %)/ND/X=1/4/4, X = the labelled SA
[11] = Air 30 (0.0125 wt %)/ND/X=1/4/4, X = the labelled SA
[12] = Portland cement paste (PCA), […]
[13] = sacrificial agent overall rating index
[14] = sum of ratings of air entrainment recovery by 0.05% and 0.1% SA, DDBS 0.0125 wt %, 50:50 B1 fly ash:cement paste

Compound | Air entrained at 66 min [1, 3] [vol %] | Air entrained at 66 min [1, 4] [vol %] | Air entrained at 66 min [1, 5] [vol %] | Air entrained at 66 min [1, 6] [vol %] | Air entrained at 66 min [1, 7] [vol %] | Air entrained at 66 min [1, 8] [vol %] | Air entrained at 66 min [1, 9] [vol %] | Air entrained at 66 min [1, 10] [vol %] | Average of air entrained at 66 min [1, 11] [%] | Overall performance rating (second protocol rating) [2] | PCA + 0.1% SA (level of air entrainment by the candidate sacrificial agent) [2, 12] | SA Rating (0-4) [2, 13] | further results
CC(O)C(O)c1ccccc1 (centres unmarked) [1-Phe 2-Pro, 1-Phenyl 2-propylene glycol] | 13 | 18 | 18 | 16 | 9 | 13 | 16 | 17 | 15 |  |  |  | 
CCCCOCCOCCO [Di-EGBE, Di-ethylene glycol butyl ether] | 16 | 21 | 24 | 21 | 11 | 17 | 22 | 22 | 19 | 4 | 2.7 | 4 | B1 + 0.0125% DDBS + 0.05% SA (air entrainment) ([2]; B1 FA/cement paste, […]): 9.9; B1 + 0.0125% DDBS + 0.1% SA (air entrainment) ([2]; B1 FA/cement paste, […]): 11.2
COC(C)COC(C)CO (centres unmarked) [Di-PGME, Di-propylene glycol methyl ether] | 16 | 21 | 25 | 20 | 11 | 15 | 20 | 23 | 18 |  | 1.1 | 4 | B1 + 0.0125% DDBS + 0.05% SA (air entrainment) ([2]; B1 FA/cement paste, 0.0125 wt % DDBS, 0.05 wt % SA): 8.7; B1 + 0.0125% DDBS + 0.1% SA (air entrainment) ([2]; B1 FA/cement paste, 0.0125 wt % DDBS, 0.10 wt % SA): 9.7; Overall performance rating (second protocol rating) [2, 14]: 4
COCCO [EGME, Ethylene glycol methyl ether] | 12 | 20 | 20 | 17 | 8 | 12 | 17 | 18 | 15 | 1 |  |  | B1 + 0.0125% DDBS + 0.05% SA (air entrainment) [2]: 3.3; B1 + 0.0125% DDBS + 0.1% SA (air entrainment) [2]: 4.3; PCA + 0.1% SA (level of air entrainment by the candidate sacrificial agent) [2]: 0.7; SA Rating (0-4) [2]: 1
OCC(O)CO [Glycerol] | 12 | 18 | 18 | 16 | 7 | 11 | 18 | 16 | 14 | 2 | 0.1 | 2 | B1 + 0.0125% DDBS + 0.1% SA (air entrainment) ([2]; B1 FA/cement paste, […]): 2.3
Polyethylene glycol (Molecular weight = 200) [PEG 200] | 14 |  | 20 | 19 | 9 |  | 18 | 18 | 16 |  |  |  | Overall performance rating (second protocol rating) [2, 14]: 3
Polyethylene glycol (Molecular weight = 1500) [PEG 1500] | 14 |  | 21 | 18 | 9 |  | 18 | 20 | 16 |  |  |  | Air entrained at 66 min ([1]; 50:50 fly ash B1 (LOI 4.36%):PCA paste, Air 30 (0.0125%)/NS/X=1/4/4, X = the labelled SA): 8 vol %; Air entrained at 66 min ([1]; 50:50 fly ash D (LOI […]):PCA paste, Air 30 (0.0125%)/NS/X=1/4/4, X = the labelled SA): 19 vol %; Air entrained at 66 min ([1]; 50:50 fly ash M1 (LOI […]):PCA paste, Air 30 (0.0125%)/NS/X=1/4/4, X = the labelled SA): 18 vol %; Air entrained at 66 min ([1]; 50:50 fly ash M2 (LOI 5.34%):PCA paste, Air 30 (0.0125%)/NS/X=1/4/4, X = the labelled SA): 5 vol %; Air entrained at 66 min ([1]; 50:50 fly ash R (LOI […]):PCA paste, Air 30 (0.0125%)/NS/X=1/4/4, X = the labelled SA): 16 vol %; Air entrained at 66 min ([1]; PCA paste, no fly ash, Air 30 (0.0125%)/NS/X=1/4/4, X = the labelled SA): 11 vol %
Sodium di-butyl naphthalene sulfonate [DBNS] |  |  |  |  |  |  |  |  |  |  |  |  | Air entrained at 66 min ([1]; 50:50 fly ash B1 (LOI 4.36%):PCA paste, Air 30 (0.0125 wt %)/X/ButOH=1/4/4, X = the labelled sulfonated SA): 11 vol %; Air entrained at 66 min ([1]; 50:50 fly ash D (LOI […]):PCA paste, Air 30 (0.0125 wt %)/X/ButOH=1/4/4, X = the labelled sulfonated SA): 20 vol %; Air entrained at 66 min ([1]; 50:50 fly ash M2 (LOI 5.34%):PCA paste, Air 30 (0.0125 wt %)/X/ButOH=1/4/4, X = the labelled sulfonated SA): 7 vol %; Air entrained at 66 min ([1]; PCA paste, no fly ash, Air 30 (0.0125 wt %)/X/ButOH=1/4/4, X = the labelled sulfonated SA): 17 vol %
